# From patent US20260365628A1, “SUBSTITUTED 3,4-DIHYDROQUINOLINONE INHIBITORS OF TSHR” (Septerna, Inc., priority 2022, published 2026)
# Target: T1, hTSHR (Homo sapiens, UniProt P16473)
# T1 construct: expressed in transfected cells
# Experiment: hTSHR TR-FRET cAMP Assay (inhibition of M22-stimulated cAMP production)
# Format: cell-based
# Conditions: Expi293F Inducible cells stably expressing hTSHR; cAMP HTRF; stimulated with EC80 of anti-TSHR antibody M22; 15 min compound preincubation, 30 min at 37° C.; read-out: Activity (IC50 bins)
# In short: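 Readout was a cAMP HTRF ratio of 655/620 nm after lysis, scaled between the EC80 M22 signal (0% inhibition) and no-agonist vehicle (100%). Frozen induced Expi293F-hTSHR cells saw test compounds (0.5% DMSO) for 15 min at 37 °C before 30 min of M22 stimulation at EC80.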
# T1 sequence (P16473 21-764): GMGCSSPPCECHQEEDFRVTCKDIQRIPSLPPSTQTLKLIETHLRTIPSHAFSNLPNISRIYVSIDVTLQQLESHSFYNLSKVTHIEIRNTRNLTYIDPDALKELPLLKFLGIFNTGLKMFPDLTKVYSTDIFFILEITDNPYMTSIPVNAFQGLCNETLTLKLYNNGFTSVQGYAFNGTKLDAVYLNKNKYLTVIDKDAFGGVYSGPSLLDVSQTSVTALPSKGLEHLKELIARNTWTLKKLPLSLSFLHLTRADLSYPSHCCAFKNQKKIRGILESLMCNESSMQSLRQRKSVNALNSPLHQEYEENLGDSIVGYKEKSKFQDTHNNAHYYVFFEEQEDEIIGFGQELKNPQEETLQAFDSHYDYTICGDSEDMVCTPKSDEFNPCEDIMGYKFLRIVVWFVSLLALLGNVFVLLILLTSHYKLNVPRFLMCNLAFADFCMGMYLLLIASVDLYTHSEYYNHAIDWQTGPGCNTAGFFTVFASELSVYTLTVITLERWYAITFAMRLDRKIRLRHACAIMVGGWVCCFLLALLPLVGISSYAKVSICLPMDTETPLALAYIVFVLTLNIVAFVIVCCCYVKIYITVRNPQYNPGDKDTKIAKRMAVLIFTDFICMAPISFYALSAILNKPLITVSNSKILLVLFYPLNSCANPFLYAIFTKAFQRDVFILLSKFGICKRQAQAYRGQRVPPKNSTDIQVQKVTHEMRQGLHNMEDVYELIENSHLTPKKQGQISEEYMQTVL
row,Structure (SMILES),IC50 [nM]
1,"C[C@@H](c1cccc([C@H](O)C(F)(F)F)c1)n1c(=O)cnc2cc(NC(=O)NC(C)(C)C)ccc21 [Example 156, 1-(tert-butyl)-3-(2-oxo-1-((S)-1-(3-((R)-2,2,2-trifluoro-1-hydroxyethyl)phe-nyl)ethyl)-1,2-dihydroquinoxalin-6-yl)urea]",100 to 1000
2,"Cc1cccc(CN2C(=O)[C@@H](C)Oc3cc(NC(=O)NC(C)(C)C)ccc32)c1 [Example 157, 3-tert-butyl-1-[(2R)-2-methyl-4-[(3-methylphenyl)methyl]-3-oxo-2H-1,4-benzoxazin-7-yl]urea]",< 100
3,"C[C@H]1Oc2cc(NC(=O)NC(C)(C)C)ccc2N(Cc2cccc(C(F)F)c2)C1=O [Example 158, (R)-1-(tert-butyl)-3-(4-(3-(difluoro-methyl)benzyl)-2-methyl-3-oxo-3,4-dihydro-2H-benzo [b][1,4]oxazin-7-yl)urea]",< 100
4,"C[C@H]1Oc2cc(NC(=O)NC(C)(C)C)ccc2N(Cc2cccc(OC(F)(F)F)c2)C1=O [Example 159, (R)-1-(tert-butyl)-3-(2-methyl-3-oxo-4-(3-(trifluoro-methoxy)benzyl)-3,4-dihydro-2H-benzo [b][1,4]oxazin-7-yl)urea]",< 100
5,"C[C@H]1Oc2cc(NC(=O)NC(C)(C)C)ccc2N(Cc2cccc(OC(F)F)c2)C1=O [Example 160, (R)-1-(tert-butyl)-3-(4-(3-(difluoro-methoxy)benzyl)-2-methyl-3-oxo-3,4-dihydro-2H-benzo [b][1,4]oxazin-7-yl)urea]",< 100
6,"C[C@H]1Oc2cc(NC(=O)NC(C)(C)C)ccc2N(Cc2cccc(C(F)(F)F)n2)C1=O [Example 161, (R)-1-(tert-butyl)-3-(2-methyl-3-oxo-4-((6-(trifluoro-methyl)pyridin-2-yl)methyl)-3,4-dihydro-2H-benzo [b][1,4]oxazin-7-yl)urea]",< 100
7,"C[C@H]1Oc2cc(NC(=O)NC(C)(C)C)ccc2N(Cc2cc(C(F)(F)F)ccn2)C1=O [Example 162, (R)-1-(tert-butyl)-3-(2-methyl-3-oxo-4-((4-(trifluoro-methyl)pyridin-2-yl)methyl)-3,4-dihydro-2H-benzo [b][1,4]oxazin-7-yl)urea]",100 to 1000
8,"C[C@H]1Oc2cc(NC(=O)NC(C)(C)C)ccc2N(Cc2ccnc(C(F)(F)F)c2)C1=O [Example 163, (R)-1-(tert-butyl)-3-(2-methyl-3-oxo-4-((2-(trifluoro-methyl)pyridin-4-yl)methyl)-3,4-dihydro-2H-benzo [b][1,4]oxazin-7-yl)urea]",100 to 1000
9,"COc1cccc(CN2C(=O)[C@@H](C)Oc3cc(NC(=O)NC(C)(C)C)ccc32)c1 [Example 164, (R)-1-(tert-butyl)-3-(4-(3-methoxy-benzyl)-2-methyl-3-oxo-3,4-dihydro-2H-benzo [b][1,4]oxazin-7-yl)urea]",100 to 1000
10,"C[C@H]1Oc2cc(NC(=O)NC(C)(C)C)ccc2N(Cc2csc(C(F)(F)F)n2)C1=O [Example 165, (R)-1-(tert-butyl)-3-(2-methyl-3-oxo-4-((2-(trifluoro-methyl)thiazol-4-yl)methyl)-3,4-dihydro-2H-benzo [b][1,4]oxazin-7-yl)urea]",100 to 1000
11,"C[C@H]1Oc2cc(NC(=O)NC(C)(C)C)ccc2N(Cc2cccc(OC(F)(F)F)n2)C1=O [Example 166, (R)-1-(tert-butyl)-3-(2-methyl-3-oxo-4-((6-(trifluoro-methoxy)pyridin-2-yl)methyl)-3,4-dihydro-2H-benzo [b][1,4]oxazin-7-yl)urea]",< 100
12,"C[C@H]1Oc2cc(NC(=O)NC(C)(C)C)ccc2N(Cc2ccnc(C(F)(F)F)n2)C1=O [Example 167, (R)-1-(tert-butyl)-3-(2-methyl-3-oxo-4-((2-(trifluoro-methyl)pyrimidin-4-yl)methyl)-3,4-dihydro-2H-benzo [b][1,4]oxazin-7-yl)urea]",100 to 1000
13,"C[C@H]1Oc2cc(NC(=O)NC(C)(C)C)ccc2N(Cc2nc(C(F)(F)F)cs2)C1=O [Example 168, (R)-1-(tert-butyl)-3-(2-methyl-3-oxo-4-((4-(trifluoro-methyl)thiazol-2-yl)methyl)-3,4-dihydro-2H-benzo [b][1,4]oxazin-7-yl)urea]",100 to 1000
14,"C[C@H]1Oc2cc(NC(=O)NC(C)(C)C)ccc2N(Cc2cncc(C(F)(F)F)n2)C1=O [Example 169, (R)-1-(tert-butyl)-3-(2-methyl-3-oxo-4-((6-(trifluoro-methyl)pyrazin-2-yl)methyl)-3,4-dihydro-2H-benzo [b][1,4]oxazin-7-yl)urea]",100 to 1000
15,"C[C@H]1Oc2cc(NC(=O)NC(C)(C)C)ccc2N(Cc2nccc(C(F)(F)F)n2)C1=O [Example 170, (R)-1-(tert-butyl)-3-(2-methyl-3-oxo-4-((4-(trifluoro-methyl)pyrimidin-2-yl)methyl)-3,4-dihydro-2H-benzo [b][1,4]oxazin-7-yl)urea]",100 to 1000
16,"C[C@H]1Oc2cc(NC(=O)NC(C)(C)C)ccc2N(Cc2cncc(C(F)(F)F)c2)C1=O [Example 171, (R)-1-(tert-butyl)-3-(2-methyl-3-oxo-4-((5-(trifluoro-methyl)pyridin-3-yl)methyl)-3,4-dihydro-2H-benzo [b][1,4]oxazin-7-yl)urea]",100 to 1000

row,Structure (SMILES),IC50 [nM]
1,"C[C@H]1Oc2cc(NC(=O)NC(C)(C)C)ccc2N(Cc2cccc(C(O)C(F)(F)F)c2)C1=O (stereo partly drawn) [Example 172, 1-(tert-butyl)-3-((2R)-2-methyl-3-oxo-4-(3-(2,2,2-trifluoro-1-hydroxy-ethyl)benzyl)-3,4-dihydro-2H-benzo [b][1,4]oxazin-7-yl)urea]",< 100
2,"C[C@H]1Oc2cc(NC(=O)NC(C)(C)C)ccc2N(Cc2cccc(C(O)C(F)(F)F)n2)C1=O (stereo partly drawn) [Example 173, 1-(tert-butyl)-3-((2R)-2-methyl-3-oxo-4-((6-(2,2,2-trifluoro-1-hydroxy-ethyl)pyridin-2-yl)methyl)-3,4-dihydro-2H-benzo [b][1,4]oxazin-7-yl)urea]",100 to 1000
3,"C[C@H]1Oc2cc(NC(=O)NC(C)(C)C)ccc2N(Cc2cccc([C@@H](O)C(F)(F)F)c2)C1=O [Example 174, 1-(tert-butyl)-3-((R)-2-methyl-3-oxo-4-(3-((R)-2,2,2-trifluoro-1-hydroxyethyl)benzyl)-3,4-dihydro-2H-benzo [b][1,4]oxazin-7-yl)urea]",100 to 1000
4,"C[C@H]1Oc2cc(NC(=O)NC(C)(C)C)ccc2N(Cc2cccc([C@H](O)C(F)(F)F)c2)C1=O [Example 175, 1-(tert-butyl)-3-((R)-2-methyl-3-oxo-4-(3-((S)-2,2,2-trifluoro-1-hydroxyethyl)benzyl)-3,4-dihydro-2H-benzo [b][1,4]oxazin-7-yl)urea]",100 to 1000
5,"C[C@H]1Oc2cc(NC(=O)NC(C)(C)C)ccc2N(Cc2cc(Cl)ccc2Cl)C1=O [Example 176, (R)-1-(tert-butyl)-3-(4-(2,5-dichloro-benzyl)-2-methyl-3-oxo-3,4-dihydro-2H-benzo [b][1,4]oxazin-7-yl)urea]",< 100
6,"C[C@H]1Oc2cc(NC(=O)NC(C)(C)C)ccc2N(Cc2cc(F)ccc2F)C1=O [Example 177, (R)-1-(tert-butyl)-3-(4-(2,5-difluoro-benzyl)-2-methyl-3-oxo-3,4-dihydro-2H-benzo [b][1,4]oxazin-7-yl)urea]",< 100
7,"C[C@H]1Oc2cc(NC(=O)NC(C)(C)C)ccc2N(Cc2ccccc2Cl)C1=O [Example 178, (R)-1-(tert-butyl)-3-(4-(2-chloro-benzyl)-2-methyl-3-oxo-3,4-dihydro-2H-benzo [b][1,4]oxazin-7-yl)urea]",100 to 1000
8,"Cc1nc2cc(NC(=O)NC(C)(C)C)ccc2n([C@@H](C)c2ccccc2)c1=O [Example 179, 3-tert-butyl-1-{3-methyl-2-oxo-1-[(1S)-1-phenylethyl]quinoxalin-6-yl}urea]",100 to 1000
9,"Cc1nc2cc(NC(=O)NC(C)(C)C)ccc2n([C@@H](C)c2cccc(Cl)c2)c1=O [Example 180, (S)-1-(tert-butyl)-3-(1-(1-(3-chlorophenyl)ethyl)-3-methyl-2-oxo-1,2-dihydroquinoxalin-6-yl)urea]",100 to 1000
10,"Cc1nc2cc(NC(=O)NC(C)(C)C)ccc2n([C@@H](C)c2cccc(C(F)(F)F)c2)c1=O [Example 181, (S)-1-(tert-butyl)-3-(3-methyl-2-oxo-1-(1-(3-(trifluoromethyl)phenyl)ethyl)-1,2-dihydroquinoxalin-6-yl)urea]",100 to 1000
11,"Cc1nc2cc(NC(=O)NC(C)(C)C)ccc2n([C@@H](C)c2cccc(OC(F)(F)F)c2)c1=O [Example 182, (S)-1-(tert-butyl)-3-(3-methyl-2-oxo-1-(1-(3-(trifluoromethoxy)phenyl)ethyl)-1,2-dihydroquinoxalin-6-yl)urea]",100 to 1000
12,"C[C@H]1Oc2cc(NC(=O)NC(C)(C)C)ccc2N([C@@H](C)c2cccc(Cl)c2)C1=O [Example 183, 1-(tert-butyl)-3-((R)-4-((S)-1-(3-chlorophenyl)ethyl)-2-methyl-3-oxo-3,4-dihydro-2H-benzo[b][1,4]oxazin-7-yl)urea]",< 100
13,"C[C@H]1Oc2cc(NC(=O)NC(C)(C)C)ccc2N([C@@H](C)c2cccc(OC(F)(F)F)c2)C1=O [Example 184, 1-(tert-butyl)-3-((R)-2-methyl-3-oxo-4-((S)-1-(3-(trifluoromethoxy)phenyl)ethyl)-3,4-dihydro-2H-benzo[b][1,4]oxazin-7-yl)urea]",100 to 1000
14,"C[C@H]1Oc2cc(NC(=O)NC(C)(C)C)ccc2N([C@@H](C)c2cccc(C(F)F)c2)C1=O [Example 185, 1-(tert-butyl)-3-((R)-4-((S)-1-(3-(difluoromethyl)phenyl)ethyl)-2-methyl-3-oxo-3,4-dihydro-2H-benzo[b][1,4]oxazin-7-yl)urea]",< 100
15,"C[C@H]1Oc2cc(NC(=O)NC(C)(C)C)ccc2N([C@@H](C)c2cccc(C(F)(F)F)n2)C1=O [Example 186, 1-(tert-butyl)-3-((R)-2-methyl-3-oxo-4-((S)-1-(6-(trifluoromethyl)pyridin-2-yl)ethyl)-3,4-dihydro-2H-benzo[b][1,4]oxazin-7-yl)urea]",< 100
